# Reference: ChEMBL document CHEMBL5303573, “Mapping human microbiome drug metabolism by gut bacteria and their genes” (Nature, 2019)
# Key:
# [1] = The drug is tested on Bacteroides fragilis strain: HMW610 for biotransformation. The drug concentrations were measured before and after a 12-h incubation by liquid-chromatography-coupled mass spectrometry (LC–MS); details: 2 µM
# [2] = The drug is tested on Ruminococcus torques strain: ATCC27756 for biotransformation. The drug concentrations were measured before and after a 12-h incubation by liquid-chromatography-coupled mass spectrometry (LC–MS); type: ADME; set-up: dose 2 uM, timepoint 0 vs 12 hours; details: 2 µM
# [3] = The drug is tested on Parabacteroides merdae strain: ATCC43184 for biotransformation. The drug concentrations were measured before and after a 12-h incubation by liquid-chromatography-coupled mass spectrometry (LC–MS); details: 2 µM
# [4] = The drug is tested on Clostridium symbiosum strain: ATCC14940 for biotransformation. The drug concentrations were measured before and after a 12-h incubation by liquid-chromatography-coupled mass spectrometry (LC–MS); details: 2 µM
# [5] = The drug is tested on Enterobacter cancerogenus strain: ATCC35316 for biotransformation. The drug concentrations were measured before and after a 12-h incubation by liquid-chromatography-coupled mass spectrometry (LC–MS); details: 2 µM
# [6] = The drug is tested on Clostridium ramosum strain: DSM1402 for biotransformation. The drug concentrations were measured before and after a 12-h incubation by liquid-chromatography-coupled mass spectrometry (LC–MS); details: thomasclavelia ramosa, 2 µM
# [7] = The drug is tested on Collinsella intestinalis strain: DSM13280 for biotransformation. The drug concentrations were measured before and after a 12-h incubation by liquid-chromatography-coupled mass spectrometry (LC–MS); details: 2 µM
# [8] = The drug is tested on Alistipes indistinctus strain: DSM22520 for biotransformation. The drug concentrations were measured before and after a 12-h incubation by liquid-chromatography-coupled mass spectrometry (LC–MS); details: 2 µM
# [9] = The drug is tested on Blautia luti strain: DSM14534 for biotransformation. The drug concentrations were measured before and after a 12-h incubation by liquid-chromatography-coupled mass spectrometry (LC–MS); type: ADME; set-up: dose 2 uM, timepoint 0 vs 12 hours; details: 2 µM
# [10] = The drug is tested on Bacteroides fragilis strain: ATCC43859 for biotransformation. The drug concentrations were measured before and after a 12-h incubation by liquid-chromatography-coupled mass spectrometry (LC–MS); details: 2 µM
# [11] = bacteroides fragilis, 12 h, 2 µM
# Description: The drug is tested on Bacteroides fragilis strain: 3397 (T10) for biotransformation. The drug concentrations were measured before and after a 12-h incubation by liquid-chromatography-coupled mass spectrometry (LC–MS)
# [12] = The drug is tested on Subdoligranulum variabile strain: DSM15176 for biotransformation. The drug concentrations were measured before and after a 12-h incubation by liquid-chromatography-coupled mass spectrometry (LC–MS); details: 2 µM
# [13] = The drug is tested on Bacteroides coprophilus strain: DSM18228 for biotransformation. The drug concentrations were measured before and after a 12-h incubation by liquid-chromatography-coupled mass spectrometry (LC–MS); details: 2 µM
# [14] = The drug is tested on Ruminococcus lactaris strain: ATCC29176 for biotransformation. The drug concentrations were measured before and after a 12-h incubation by liquid-chromatography-coupled mass spectrometry (LC–MS); details: 2 µM
# [15] = The drug is tested on Bacteroides cellulosilyticus strain: DSM14838 for biotransformation. The drug concentrations were measured before and after a 12-h incubation by liquid-chromatography-coupled mass spectrometry (LC–MS); details: 2 µM
# [16] = bacteroides fragilis, 12 h, 2 µM; remark: listed apart in the source
# Description: The drug is tested on Bacteroides fragilis strain: NCTC 9343 for biotransformation. The drug concentrations were measured before and after a 12-h incubation by liquid-chromatography-coupled mass spectrometry (LC–MS)
# [17] = anaerostipes sp., 12 h, 2 µM
# Description: The drug is tested on Anaerostipes sp. strain: fecal isolate for biotransformation. The drug concentrations were measured before and after a 12-h incubation by liquid-chromatography-coupled mass spectrometry (LC–MS)
# [18] = The drug is tested on Bacteroides fragilis strain: HMW615 for biotransformation. The drug concentrations were measured before and after a 12-h incubation by liquid-chromatography-coupled mass spectrometry (LC–MS); details: 2 µM
# [19] = The drug is tested on Bacteroides dorei strain: DSM17855 for biotransformation. The drug concentrations were measured before and after a 12-h incubation by liquid-chromatography-coupled mass spectrometry (LC–MS); details: phocaeicola dorei, 2 µM
# [20] = The drug is tested on Clostridium sporogenes strain: ATCC15579 for biotransformation. The drug concentrations were measured before and after a 12-h incubation by liquid-chromatography-coupled mass spectrometry (LC–MS); details: 2 µM
Structure (SMILES),Bacterial Biotransformation [1],Bacterial Biotransformation [2],Bacterial Biotransformation [3],Bacterial Biotransformation [4],Bacterial Biotransformation [5],Bacterial Biotransformation [6],Bacterial Biotransformation [7],Bacterial Biotransformation [8],Bacterial Biotransformation [9],Bacterial Biotransformation [10],Bacterial Biotransformation [11],Bacterial Biotransformation [12],Bacterial Biotransformation [13],Bacterial Biotransformation [14],Bacterial Biotransformation [15],Bacterial Biotransformation [16],Bacterial Biotransformation [17],Bacterial Biotransformation [18],Bacterial Biotransformation [19],Bacterial Biotransformation [20]
CCC(COC(=O)c1cc(OC)c(OC)c(OC)c1)(c1ccccc1)N(C)C.O=C(O)/C=C\C(=O)O (configuration not stated),Compound NOT metabolized,Compound metabolized,Compound metabolized,Compound metabolized,Compound metabolized,Compound NOT metabolized,Compound metabolized,Compound metabolized,Compound metabolized,Compound NOT metabolized,Compound metabolized,Compound metabolized,Compound metabolized,Compound metabolized,Compound NOT metabolized,Compound metabolized,Compound metabolized,Compound NOT metabolized,Compound metabolized,Compound metabolized
CC1=C(CC(=O)O)c2cc(F)ccc2/C1=C\c1ccc([S+](C)[O-])cc1 (configuration not stated),Compound NOT metabolized,Compound NOT metabolized,Compound NOT metabolized,Compound NOT metabolized,Compound NOT metabolized,Compound NOT metabolized,Compound NOT metabolized,Compound NOT metabolized,Compound NOT metabolized,Compound NOT metabolized,Compound NOT metabolized,Compound NOT metabolized,Compound NOT metabolized,Compound NOT metabolized,Compound NOT metabolized,Compound NOT metabolized,Compound NOT metabolized,Compound NOT metabolized,Compound NOT metabolized,Compound NOT metabolized
O=c1[nH]c2ccccc2n1C1CCN(CCCC(c2ccc(F)cc2)c2ccc(F)cc2)CC1 [PIMOZIDE],Compound NOT metabolized,Compound NOT metabolized,Compound NOT metabolized,Compound NOT metabolized,Compound NOT metabolized,Compound NOT metabolized,Compound NOT metabolized,Compound NOT metabolized,Compound NOT metabolized,Compound NOT metabolized,Compound NOT metabolized,Compound NOT metabolized,Compound NOT metabolized,Compound NOT metabolized,Compound NOT metabolized,Compound NOT metabolized,Compound NOT metabolized,Compound NOT metabolized,Compound NOT metabolized,Compound NOT metabolized
C[C@]12C=CC(=O)C=C1CC[C@@H]1[C@@H]2C(=O)C[C@@]2(C)[C@H]1CC[C@]2(O)C(=O)CO [PREDNISONE],Compound NOT metabolized,Compound NOT metabolized,Compound NOT metabolized,Compound NOT metabolized,Compound NOT metabolized,Compound NOT metabolized,Compound NOT metabolized,Compound NOT metabolized,Compound NOT metabolized,Compound NOT metabolized,Compound NOT metabolized,Compound NOT metabolized,Compound NOT metabolized,Compound NOT metabolized,Compound NOT metabolized,Compound NOT metabolized,Compound NOT metabolized,Compound NOT metabolized,Compound NOT metabolized,Compound NOT metabolized
Nc1nc2ccc(OC(F)(F)F)cc2s1 [RILUZOLE],Compound metabolized,,Compound NOT metabolized,Compound NOT metabolized,Compound NOT metabolized,Compound NOT metabolized,Compound NOT metabolized,Compound NOT metabolized,,Compound metabolized,Compound NOT metabolized,Compound NOT metabolized,Compound NOT metabolized,Compound NOT metabolized,Compound NOT metabolized,Compound NOT metabolized,Compound NOT metabolized,Compound metabolized,Compound metabolized,Compound NOT metabolized
C=CC[C@@H]1/C=C(\C)C[C@H](C)C[C@H](OC)[C@H]2O[C@@](O)(C(=O)C(=O)N3CCCC[C@H]3C(=O)O[C@H](/C(C)=C/[C@@H]3CC[C@@H](O)[C@H](OC)C3)[C@H](C)[C@@H](O)CC1=O)[C@H](C)C[C@@H]2OC.O [TACROLIMUS],,Compound NOT metabolized,Compound NOT metabolized,Compound metabolized,Compound metabolized,Compound metabolized,Compound metabolized,Compound metabolized,Compound metabolized,Compound NOT metabolized,Compound NOT metabolized,Compound metabolized,Compound metabolized,Compound metabolized,Compound metabolized,Compound metabolized,Compound metabolized,Compound NOT metabolized,Compound metabolized,Compound metabolized
CN(C/C=C/C#CC(C)(C)C)Cc1cccc2ccccc12 [TERBINAFINE],Compound NOT metabolized,Compound NOT metabolized,Compound NOT metabolized,Compound NOT metabolized,Compound NOT metabolized,Compound NOT metabolized,Compound NOT metabolized,Compound NOT metabolized,Compound NOT metabolized,Compound NOT metabolized,Compound NOT metabolized,Compound NOT metabolized,Compound NOT metabolized,Compound NOT metabolized,Compound NOT metabolized,Compound NOT metabolized,Compound NOT metabolized,Compound NOT metabolized,Compound NOT metabolized,Compound NOT metabolized
